Patent US7638540B2, “Benzofuran compound and medicinal composition containing the same” (The New Industry Research Organization, priority 2003, dated 2009)

SMILES	melting point [°C]
C/C(O)=C(/C#N)C(=O)NC(C)c1cc2cccc(OCC(=O)O)c2o1 (stereo not shown) [Example 127, (E)-{2-[1-(2-cyano-3-hydroxy-2-butenoylamino)ethyl]benzofuran-7-yloxy}acetic acid]	169.9 to 173.2
CC(=O)c1oc2ccc(Br)cc2c1NC(=O)/C=C/CCc1ccccc1 [Example 175, (E)-5-phenyl-2-penteneoic acid (2-acetyl-5-bromobenzofuran-3-yl)amide]	129 to 131
C/C(O)=C(\C#N)C(=O)Nc1c(C(=O)c2ccc(C#N)cc2)oc2ccc(Br)cc12 [Example 100, (Z)-N-[5-bromo-2-(4-cyanobenzoyl)benzofuran-3-yl]-2-cyano-3-hydroxy-2-butenamide]	269.3 to 271.2
COc1cccc(NC(=O)/C=C(\C)c2cc3c(Br)ccc(OCCN(C)C)c3o2)c1 [Example 39, (E)-3-[4-bromo-7-(2-dimethylaminoethoxy)benzofuran-2-yl]-N-(3-methoxyphenyl)-2-butenamide]	176.4 to 181.5
CC(=O)c1oc2ccccc2c1NC(=O)c1cnoc1C [Example 69, N-(2-acetylbenzofuran-3-yl)-5-methylisoxazole-4-carboxamide]	174 to 177
CCN(CC)C(=O)/C=C(\C)c1ccc2oc(C(=O)Nc3cccc(OC)c3)c(N)c2c1 [Example 158, (E)-3-amino-5-(2-diethylcarbamoyl-1-methylvinyl)benzofurane-2-carboxylic acid (3-methoxyphenyl)amide]	155 to 157
Cc1oncc1C(=O)Nc1c(C(C)O)oc2ccc(Br)cc12 (stereo not shown) [Example 70, N-[5-bromo-2-(1-hydroxyethyl)benzofuran-3-yl]-5-methylisoxazole-4-carboxamide]	125.2 to 128.8
COc1ccc2c(NC(=O)c3cnoc3C)c(C(C)=O)oc2c1 [Example 83, N-(2-acetyl-6-methoxybenzofuran-3-yl)-5-methylisoxazole-4-carboxamide]	168.2 to 170.1
Cc1oncc1C(=O)Nc1c(C(N)=O)oc2ccccc12 [Example 79, N-(2-carbamoylbenzofuran-3-yl)-5-methylisoxazole-4-carboxamide]	250.7 to 252.6
C/C(O)=C(\C#N)C(=O)Nc1c(C(=O)/C=C/c2ccccc2)oc2ccc(Br)cc12 [Example 174, 2-cyano-3-hydroxy-(Z)-2-butenoic acid [5-bromo-2-((E)-3-phenylacryloyl)benzofuran-3-yl]amide]	261.5 to 262.8
CC(=O)c1cc2cc(/C(C)=C/C(=O)N3CCOCC3)ccc2o1 [Example 27, (E)-3-(2-acetylbenzofuran-5-yl)-1-morpholino-2-buten-1-one]	138.9 to 141.8
CCN(CC)C(=O)/C=C(\C)c1ccc2oc(C(=O)c3ccc(C#N)cc3)c(NC(=O)/C(C#N)=C(/C)O)c2c1 [Example 109, N-[2-(4-cyanobenzoyl)-5-((E)-2-diethylcarbamoyl-1-methylvinyl)benzofuran-3-yl]-2-cyano-3-hydroxy-(Z)-2-butenamide]	219.5 to 222.8
C/C(O)=C(\C#N)C(=O)Nc1c(C(N)=O)oc2ccccc12 [Example 101, (Z)-3-(2-cyano-3-hydroxy-2-butenoylamino)benzofurane-2-carboxamide]	265
CCCCc1oc2ccccc2c1/C(Cl)=C/C=C/C(=O)Nc1ccc(OC)cc1 [Example 135, (2E,4Z)-5-(2-butylbenzofuran-3-yl)-5-chloropenta-2,4-dienoic acid (4-methoxyphenyl)amide]	91.3 to 93.2
COc1cccc2cc(/C(Cl)=C/C=C/C#N)oc12 [Example 61, (2E,4Z)-5-chloro-5-(7-methoxybenzofuran-2-yl)penta-2,4-dienenitrile]	98.9 to 101.2
COc1ccc(NC(=O)/C=C/C=C(\Cl)c2cc3cccc(OCCCCl)c3o2)cc1OC [Example 53, (2E,4Z)-5-chloro-5-[7-(3-chloropropoxy)benzofuran-2-yl]penta-2,4-dienoic acid (3,4-dimethoxyphenyl)amide]	167.5 to 169
COc1cccc2c(NC(=O)c3cnoc3C)c(C(=O)c3ccc(Cl)cc3)oc12 [Example 82, N-[2-(4-chlorobenzoyl)-7-methoxybenzofuran-3-yl]-5-methylisoxazole-4-carboxamide]	237.4 to 239.5
CC(=O)c1oc2ccc(C#N)cc2c1NC(=O)/C(C#N)=C(/C)O [Example 93, (Z)-N-(2-acetyl-5-cyanobenzofuran-3-yl)-2-cyano-3-hydroxy-2-butenamide]	216 to 218
COc1ccc(NC(=O)/C=C(\C)c2cc3cccc(OC(c4ccccc4)c4ccccc4)c3o2)cc1OC [Example 45, (E)-3-(7-benzhydryloxybenzofuran-2-yl)-N-(3,4-dimethoxyphenyl)-2-butenamide]	93.9 to 94.5
CCOC(=O)/C=C/C=C(\Cl)c1cc2cc(Br)ccc2o1 [Example 159, Ethyl (2E,4Z)-5-(5-bromobenzofuran-2-yl)-5-chloropenta-2,4-dienoate]	109 to 113
CC(=O)OC(C)c1oc2ccccc2c1NC(=O)c1cnoc1C (stereo not shown) [Example 76, 1-{3-[(5-methylisoxazole-4-carbonyl)amino]benzofuran-2-yl}ethyl acetate]	130.2 to 132.9
CCN(CC)C(=O)/C=C(/C)c1oc2ccc(Br)cc2c1C [Example 153, (Z)-3-(5-bromo-3-methylbenzofuran-2-yl)-2-butenoic acid diethylamide]	60.1 to 62
Cc1oncc1C(=O)Nc1c(C#N)oc2ccc(Br)cc12 [Example 85, N-(5-bromo-2-cyanobenzofuran-3-yl)-5-methylisoxazole-4-carboxamide]	239.2 to 241.9
CCOC(=O)C(CSCc1ccccc1)NC(=O)/C=C/C=C(\Cl)c1cc2cccc(OCCCCl)c2o1 (stereo not shown) [Example 63, Ethyl (2E,4Z)-3-benzylsulfanyl-2-{5-chloro-5-[7-(3-chloropropoxy)benzofuran-2-yl]penta-2,4-dienoylamino}propionate]	116.5 to 118.3
COc1cccc2c(NC(=O)c3cnoc3C)c(C(C)=O)oc12 [Example 80, N-(2-acetyl-7-methoxybenzofuran-3-yl)-5-methylisoxazole-4-carboxamide]	181 to 181.7
COc1ccc(CCNC(=O)/C=C(\C)c2ccc(C(=O)c3oc4c(OC)cccc4c3NC(=O)/C(C#N)=C(/C)O)cc2)cc1OC [Example 106, N-[2-(4-{(E)-2-[2-(3,4-dimethoxyphenyl)ethylcarbamoyl]-1-methylvinyl}benzoyl)-7-methoxybenzofuran-3-yl]-2-cyano-3-hydroxy-(Z)-2-butenamide]	202.9 to 205.8

The next lines start with the values.

melting point [°C]	SMILES
221.1 to 222	CC(=O)Nc1c(C(=O)/C=C/N(C)C)oc2ccc(Br)cc12 [Example 194, (E)-N-[5-bromo-2-(3-dimethylaminoacryloyl)benzofuran-3-yl]acetamide]
204.7 to 206.8	O=C(CCCl)Nc1c(C(=O)/C=C/c2ccccc2)oc2ccc(Br)cc12 [Example 201, (E)-N-[5-bromo-2-(3-phenylacryloyl)-benzofuran-3-yl]-3-chloropropionamide]
174.2 to 176.5	COc1ccc(/C=C/C(=O)c2oc3ccc(Br)cc3c2NC(=O)CNCc2ccccc2)cc1 [Example 196, (E)-2-benzylamino-N-{5-bromo-2-[3-(4-methoxyphenyl)acryloyl]benzofuran-3-yl}acetamide]
216 to 217	C/C=C/C(=O)Nc1c(Cl)oc2c(OC)cccc12 [Example 187, (E)-2-butenoic acid (2-chloro-7-methoxybenzofuran-3-yl)amide]
247.5 to 249.5	C/C=C/C(=O)Nc1c(C(=O)/C=C/N(C)C)oc2ccc(Br)cc12 [Example 177, (E)-2-butenoic acid [5-bromo-2-(3-dimethylamino-(E)-acryloyl)benzofuran-3-yl]amide]
90 to 91.8	COc1cccc2cc(C(C)NC(C)=O)oc12 (stereo not shown) [Example 191, N-[1-(7-methoxybenzofuran-2-yl)ethyl]acetamide]
248.7 to 250.3	O=C(/C=C/c1ccccc1)Nc1c(Cl)oc2ccc(Br)cc12 [Example 180, (E)-N-(5-bromo-2-chlorobenzofuran-3-yl)-3-phenylacrylamide]
203.5 to 205	COc1ccc2oc(-c3nc(N=CN(C)C)sc3C=O)c(-c3ccc(Cl)cc3)c2c1 [Example 221, N′-{4-[3-(4-chlorophenyl)-5-methoxybenzofuran-2-yl]-5-formylthiazol-2-yl}-N,N-dimethylformamidine]
223 to 229	COc1cccc(NC(=O)c2oc3ccc(Br)cc3c2NC(=O)c2cnoc2C)c1 [Example 183, 5-methyl-isoxazole-4-carboxylic acid [5-bromo-2-(3-methoxyphenylcarbamoyl)benzofuran-3-yl]amide]
185.5 to 187.8	Brc1ccc2oc(-c3csc(-c4ccccc4)n3)cc2c1 [Example 212, 4-(5-bromobenzofuran-2-yl)-2-phenylthiazole]
167.4 to 167.9	Cc1nc(-c2cc3cc(Br)ccc3o2)cs1 [Example 216, 4-(5-bromobenzofuran-2-yl)-2-methylthiazole]
196 to 197.7	COc1ccc2oc(-c3csc(N)n3)c(-c3ccc(Cl)cc3)c2c1 [Example 218, 4-[3-(4-chlorophenyl)-5-methoxybenzofuran-2-yl]thiazol-2-ylamine]
312.2 to 348.6	COc1cccc2c(NC(=O)CC#N)c(C(=O)c3ccc(Br)cc3)oc12 [Example 198, N-[2-(4-bromobenzoyl)-7-methoxybenzofuran-3-yl]-2-cyanoacetamide]
204 to 206	CCN(CC)C(=O)/C=C(\C)c1ccc2oc(C(=O)Nc3cccc(OC)c3)c(NC(=O)c3cnoc3C)c2c1 [Example 186, (E)-5-methyl-isoxazole-4-carboxylic acid [5-((E)-2-diethylcarbamoyl-1-methylvinyl)-2-(3-methoxyphenylcarbamoyl)benzofuran-3-yl]amide]
